This note sets out measurements from patent publication US20250099464A1, “PHARMACEUTICAL COMPOSITIONS” (ViiV Healthcare UK (No.3) Limited, priority 2023, published 2025).

Molecules are shown by their SMILES.

A short description of the data set: Cabotegravir population pharmacokinetic (PopPK) model. More on the design: species or system human. How it is done:
A cabotegravir population pharmacokinetic (PopPK) model was built based on PK data following cabotegravir (CAB) 200 mg/mL intramuscular (IM) injections collected in 16 historical studies (Population pharmacokinetics of cabotegravir following administration of oral tablet and long-acting intramuscular injection in adult HIV-1-infected and uninfected subjects. Han K, Baker M, Lovern M, Paul P, Xiong Y, Patel P, Moore K P, Seal C S, Cutrell A G, D'Amico R D, Benn P D, Landovitz R J, Marzinke M A, Spreen W R, Ford S L. Br J Clin Pharmacol. 2022 October; 88(10):4607-4622. doi: 10.1111/bcp.15439. Epub 2022 Jul. 4. PMID: 35695476) and updated based on PK data from 19 studies: LAI116585, LAI117010, LAI117011, LAI117020, 201741, 201479, 201480, 205696, LAI116482 (LATTE), LAI115428, LAI116815, 200056 (LATTE-2), 201120 (ECLAIR), 201103 (HPTN077), 201584 (FLAIR), 201585 (ATLAS), 207966 (ATLAS-2M), 201738 (HPTN 083) and 201739 (HPTN 084). A total of 34,850 CAB plasma concentrations collected at various time points from 2,694 participants were used to build this PopPK model. […] The simulations were performed as follows: covariates including body weight, BMI and smoking status were resampled 5000 times from the distribution of these covariates for males and females, generating 5000 virtual male subjects and 5000 virtual female subjects. Individual PK parameters of the virtual subjects were calculated using subject-specific covariates and using the population parameter estimates, subject-specific NONMEM inter-individual errors (ETAs) sampled from the distributions that are decided by the estimated variance-covariate matrix of between-subject variability from the final population PK model. Concentration-versus-time profiles of the virtual subjects were calculated using the individual PK parameters. Residual variability (EPS) was included in the simulation. Median and 10th and 90th percentiles (80% prediction interval) of the simulated concentration-versus-time profiles of the virtual males and females were calculated. […]

For `C[C@H]1CO[C@@H]2Cn3cc(C(=O)NCc4ccc(F)cc4F)c(=O)c(O)c3C(=O)N12` [cabotegravir, (3S,11aR)—N-((2,4-difluorophenyl)methyl)-6-hydroxy-3-methyl-5,7-dioxo-2,3,5,11,11a-hexahydro(1,3)oxazolo(3,2-a)pyrido(1,2-d)pyrazine-8-carboxamide], the “KA2 in relation to BMI” value was “decreased with increasing BMI” and the “KA2 in relation to needle length” value is “lower with longer needle length”. In addition, the “Long-acting intramuscular gluteal absorption rate constant (KA2), lower in people assigned female at birth than people assigned male at birth” value (CAB 200 mg/mL IM injections) is 46.5%.
